The values below are quoted from earlier work in paper PMC6680430, “Quantitative Prediction of Human Pharmacokinetics and Pharmacodynamics of CKD519, a Potent Inhibitor of Cholesteryl Ester Transfer Protein (CETP)” (Pharmaceutics, 2019).

This data set deals with CETP. Particulars: cited from earlier work.

pIC50: −log10 of the molar value.

As for `COc1cc(F)c(C(C)C)cc1-c1ccc(C(F)(F)F)cc1CN1C(=O)O[C@H](c2cc(C(F)(F)F)cc(C(F)(F)F)c2)[C@@H]1C` [anacetrapib], the “peak effect, inhibition of CETP” value (exposure-response from literature) is ~ 90%. The pIC50 (known in vivo value for the comparator, read-out: in vivo IC50 (plasma concentration for half of maximum CETP inhibition)) was 7.66.
